Common to all, as to assay type: functional
Experiment [1] deals with SN12C. As to the kind of experiment: Anticancer activity against human SN12C cells assessed cell growth at 10 uM after 48 hrs by sulforhodamine B assay relative to control. For orientation: The SRB assay estimates cell density from bound dye.
The subject of experiment [2] is BT-549. Kind of experiment: Anticancer activity against human BT549 cells assessed cell growth at 10 uM after 48 hrs by sulforhodamine B assay relative to control.
The test system of experiment [3] is OVCAR-8. Kind of experiment: Anticancer activity against human OVCAR8 cells assessed cell growth at 10 uM after 48 hrs by sulforhodamine B assay relative to control.
Experiment [4] relates to A549. As to the kind of experiment: Anticancer activity against human A549 cells assessed cell growth at 10 uM after 48 hrs by sulforhodamine B assay relative to control.
The subject of experiment [5] is KM12. Kind of experiment: Anticancer activity against human KM12 cells assessed cell growth at 10 uM after 48 hrs by sulforhodamine B assay relative to control.
The test system of experiment [6] is U-251. As to the kind of experiment: Anticancer activity against human U251 cells assessed cell growth at 10 uM after 48 hrs by sulforhodamine B assay relative to control.
Experiment [7] has as its system OVCAR-3. As to the kind of experiment: Anticancer activity against human OVCAR-3 cells assessed cell growth at 10 uM after 48 hrs by sulforhodamine B assay relative to control.
Experiment [8] deals with NCI-H322M. Kind of experiment: Anticancer activity against human NCI-H322M cells assessed cell growth at 10 uM after 48 hrs by sulforhodamine B assay relative to control.
In experiment [9] the test system is MOLT-4. As to the kind of experiment: Anticancer activity against human MOLT4 cells assessed cell growth at 10 uM after 48 hrs by sulforhodamine B assay relative to control.
In experiment [10] the test system is SF-539. Kind of experiment: Anticancer activity against human SF539 cells assessed cell growth at 10 uM after 48 hrs by sulforhodamine B assay relative to control.
Experiment [11] deals with COLO 205. Kind of experiment: Anticancer activity against human COLO205 cells assessed cell growth at 10 uM after 48 hrs by sulforhodamine B assay relative to control.
The test system of experiment [12] is SF-295. Kind of experiment: Anticancer activity against human SF295 cells assessed cell growth at 10 uM after 48 hrs by sulforhodamine B assay relative to control.
For experiment [13], the system named is HCT-15. Kind of experiment: Anticancer activity against human HCT15 cells assessed cell growth at 10 uM after 48 hrs by sulforhodamine B assay relative to control.
Experiment [14] deals with A498. Kind of experiment: Anticancer activity against human A498 cells assessed cell growth at 10 uM after 48 hrs by sulforhodamine B assay relative to control.

The structures appear in SMILES notation.

As to `CCCCCCCC[n+]1ccn(C)c1.F[P-](F)(F)(F)(F)F`, the Activity in experiment [1] is 86.03%; in experiment [2] it was 60.35%; in experiment [3], 78.96%; in experiment [4], 82.75%; in experiment [5], 71.32%; in experiment [6], 70.41%. The Activity is on record as 86.51% in [7]; 89.47% in experiment [8]; 86.46% in [9]; 67.02% in [10]; 66.27% in [11]; 79.54% in [12]. Further, the values for the Activity in experiment [13] and in [14] were 97.27% and 85.75%, respectively.
Regarding `COCC[n+]1ccn(C)c1.O=S(=O)([N-]S(=O)(=O)C(F)(F)F)C(F)(F)F`, the Activity in experiment [1] is listed as 96.96%; in [2], 96.44%; in experiment [3], 96.68%; in experiment [4] it was 101.69%; in experiment [5] it was 105.57%; in experiment [6], 91.58%. In addition, the Activity amounted to 116.33% in experiment [7]; 102.08% in experiment [8]; 105.9% in experiment [9]; 94.09% in experiment [10]; 130.61% in experiment [11]; 112.28% in experiment [12]. Further, the Activity in [13] is reported as 101.44%; in experiment [14], 75.43%.
As for `CCCCCC[n+]1ccn(C)c1.FC(F)(F)C(F)(F)[P-](F)(F)(F)(C(F)(F)C(F)(F)F)C(F)(F)C(F)(F)F`, the Activity is listed as 87.26% in experiment [1]; 54.78% in experiment [2]; 60.84% in experiment [3]; 56.87% in experiment [4]; 91.54% in [5]; 78.65% in experiment [6]. Also, the Activity in [7] is 94.84%; in experiment [8], 77.95%; in experiment [9], 81.53%; in experiment [10], 75.55%; in experiment [11], 97.72%; in experiment [12], 70.02%. The Activity in experiment [13] is 91.62%; in experiment [14] it was 75.58%.
As to `CCCCCC[n+]1ccn(C)c1.O=S(=O)([N-]S(=O)(=O)C(F)(F)F)C(F)(F)F`, the Activity is given as 90.25% in [1]; 119.52% in [2]; 84.83% in [3]; 78.86% in experiment [4]; 100.77% in experiment [5]; 96.82% in [6]. Further, the Activity in experiment [7] is listed as 99.74%; in [8], 113.78%; in [9], 100.94%; in experiment [10] it was 75.4%; in [11], 100.66%; in experiment [12], 101.37%. For the same compound, the Activity is 105.5% in experiment [13] and 84.14% in experiment [14].
With `Cn1cc[n+](CCO)c1.O=S(=O)([N-]S(=O)(=O)C(F)(F)F)C(F)(F)F`, the Activity amounted to 96.7% in experiment [1]; 114.11% in experiment [2]; 93.89% in experiment [3]; 99.55% in experiment [4]; 107.33% in experiment [5]; 91.58% in experiment [6]. For the same compound, the Activity was determined as 120.42% in experiment [7]; 94.56% in [8]; 49.74% in experiment [9]; 99.95% in experiment [10]; 132.21% in experiment [11]; 128.56% in experiment [12]. The Activity in experiment [13] is listed as 90.93%; in [14] it was 79.55%.
Regarding `CCCCCCCC[n+]1ccn(C)c1.[Cl-]`, the Activity in [1] is listed as 93.85%; in [2] it was 81.23%; in [3] it was 77.68%; in [4], 85.73%; in experiment [5], 81.14%; in experiment [6] it was 79.77%. The Activity in experiment [7] is 81.96%; in [8] it was 95.53%; in experiment [9], 81.09%; in [10], 71.01%; in experiment [11], 97.68%; in [12], 101.39%. The figures for the Activity in experiment [13] and in experiment [14] were 111.4% and 101.4%, respectively.
For the compound `Cn1cc[n+](Cc2ccccc2)c1.F[P-](F)(F)(F)(F)F`, the Activity in experiment [1] turned out to be 107.17%; in experiment [2], 112.82%; in [3] it was 108.71%; in experiment [4] it was 105.33%; in experiment [5] it was 110.94%; in experiment [6] it was 101.41%. Further, the Activity in experiment [7] is on record as 110.15%; in experiment [8], 116.31%; in [9], 81.59%; in experiment [10] it was 106.41%; in experiment [11], 123.33%; in experiment [12], 115.95%. The Activity in experiment [13] stood at 106.14%; in experiment [14] it was 112.56%.
Regarding `CCCCCCCCOS(=O)(=O)[O-].CCCCCCCC[n+]1ccn(C)c1`, the Activity in experiment [1] is listed as 92.64%; in experiment [2] it was 67.86%; in experiment [3] it was 76.03%; in experiment [4], 82.78%; in experiment [5], 76.23%; in experiment [6] it was 71.96%. Besides, the Activity is on record as 81.64% in experiment [7]; 89.12% in experiment [8]; 86.99% in experiment [9]; 65.31% in experiment [10]; 82.4% in [11]; 80.68% in experiment [12]. The Activity worked out at 107.62% in [13] and 90.58% in experiment [14].
As to `CCCCCCCC[n+]1ccn(C)c1.F[B-](F)(F)F`, the Activity was found to be 97.45% in experiment [1]; 64.81% in experiment [2]; 73.05% in experiment [3]; 89.22% in experiment [4]; 79.57% in experiment [5]; 73.04% in [6]. For the same compound, the Activity was found to be 102.92% in [7]; 101.83% in experiment [8]; 92.94% in [9]; 74.98% in experiment [10]; 77.64% in experiment [11]; 78.23% in [12]. Also, the Activity in experiment [13] was found to be 97.47%; in experiment [14], 99.32%.

(Values after ChEMBL document CHEMBL1153245, “A profile of the in vitro anti-tumor activity of imidazolium-based ionic liquids” (2010).)
